Laboratory results taken from patent publication US6124269A, “2-Halo-6-O-substituted ketolide derivatives” (priority 1998, dated 2000).
Converted amounts (≈) assume the structure as drawn.

Key:
Assay type in all cases: cell-based
[1] = system: Escherichia coli DC-2; test: In vitro agar dilution MIC, organism code SS; settings: Table 1B, unit assumed
Experimental: (§1) Representative compounds of the present invention were assayed in vitro for antibacterial activity as follows: Twelve petri dishes containing successive aqueous dilutions of the test compound mixed with 10 mL of sterilized Brain Heart Infusion (BHI) agar (Difco 0418-01-5) were prepared. Each plate was inoculated with 1:100 (or 1:10 for slow-growing strains, such as Micrococcus and Streptococcus) dilutions of up to 32 different microorganisms, using a Steers replicator block. The inoculated plates were incubated at 35-37° C. for 20 to 24 hours. In addition, a control plate, using BHI agar containing no test compound, was prepared and incubated at the beginning and end of each test.
(§2) An additional plate containing a compound having known susceptibility patterns for the organisms being tested and belonging to the same antibiotic class as the test compound was also prepared and incubated as a further control, as well as to provide test-to-test comparability.
(§3) After incubation, each plate was visually inspected. The minimum inhibitory concentration (MIC) was defined as the lowest concentration of drug yielding no growth, a slight haze, or sparsely isolated colonies on the inoculum spot as compared to the growth control.

[2] = system: Streptococcus agalactiae CMX 508; test: In vitro agar dilution MIC, organism code KK; settings: Table 1B, unit assumed
Experimental: as §1, §2, §3

[3] = system: Staphylococcus aureus CMX 553; test: In vitro agar dilution MIC, organism code FF; settings: Table 1B, unit assumed
Experimental: as §1, §2, §3

[4] = system: Escherichia coli JUHL; test: In vitro agar dilution MIC, organism code QQ; settings: Table 1B, in µg/mL (unit assumed)
Experimental: as §1, §2, §3

[5] = system: Enterococcus faecium ATCC 8043; test: In vitro agar dilution MIC, organism code II; settings: Table 1B, unit assumed
Experimental: as §1, §2, §3

[6] = system: Streptococcus pneumoniae 5649; test: In vitro agar dilution MIC, organism code ZZA; settings: unit assumed
Experimental: as §1, §2, §3

[7] = system: Staphylococcus aureus CMX 642A; test: In vitro agar dilution MIC, organism code DD; settings: Table 1B, unit assumed
Experimental: as §1, §2, §3

[8] = system: Micrococcus luteus ATCC 9341; test: In vitro agar dilution MIC, organism code OO; settings: Table 1B, unit assumed
Experimental: as §1, §2, §3

[9] = system: Streptococcus pneumoniae ATCC 6303; test: In vitro agar dilution MIC, organism code XX; settings: unit assumed
Experimental: as §1, §2, §3

[10] = system: Candida albicans CCH 442; test: In vitro agar dilution MIC, organism code TT; settings: Table 1B, unit assumed
Experimental: as §1, §2, §3

[11] = system: Streptococcus pyogenes 930; test: In vitro agar dilution MIC, organism code MM; settings: unit assumed
Experimental: as §1, §2, §3

[12] = system: Streptococcus bovis A-5169; test: In vitro agar dilution MIC, organism code JJ; settings: Table 1B, unit assumed
Experimental: as §1, §2, §3

[13] = system: Escherichia coli SS; test: In vitro agar dilution MIC, organism code RR; settings: Table 1B, in µg/mL (unit assumed)
Experimental: as §1, §2, §3

[14] = system: Staphylococcus aureus A-5278; test: In vitro agar dilution MIC, organism code CC; settings: unit assumed
Experimental: as §1, §2, §3

[15] = system: Staphylococcus epidermidis 3519; test: In vitro agar dilution MIC, organism code HH; settings: Table 1B, in µg/mL (unit assumed)
Experimental: as §1, §2, §3

[16] = system: Streptococcus pyogenes PIU 2548; test: In vitro agar dilution MIC, organism code NN; settings: unit assumed
Experimental: as §1, §2, §3

[17] = system: Micrococcus luteus ATCC 4698; test: In vitro agar dilution MIC, organism code PP; settings: Table 1B, in µg/mL (unit assumed)
Experimental: as §1, §2, §3

[18] = system: Streptococcus pneumoniae GYR 1171; test: In vitro agar dilution MIC, organism code YY; settings: Table 1B, unit assumed
Experimental: as §1, §2, §3

[19] = system: Streptococcus pneumoniae 5979; test: In vitro agar dilution MIC, organism code ZZ; settings: unit assumed
Experimental: as §1, §2, §3

[20] = system: Staphylococcus aureus ATCC 6538P; test: In vitro agar dilution MIC, organism code AA; settings: unit assumed
Experimental: as §1, §2, §3

[21] = system: Staphylococcus aureus 1775; test: In vitro agar dilution MIC, organism code GG; settings: Table 1B, unit assumed
Experimental: as §1, §2, §3

[22] = system: Staphylococcus aureus NCTC10649M; test: In vitro agar dilution MIC, organism code EE; settings: Table 1B, unit assumed
Experimental: as §1, §2, §3

[23] = system: Haemophilis influenzae DILL AMP R; test: In vitro agar dilution MIC, organism code WW; settings: unit assumed
Experimental: as §1, §2, §3

[24] = system: Mycobacterium smegmatis ATCC 114; test: In vitro agar dilution MIC, organism code UU; settings: Table 1B, in µg/mL (unit assumed)
Experimental: as §1, §2, §3

[25] = system: Streptococcus pyogenes EES61; test: In vitro agar dilution MIC, organism code LL; settings: unit assumed
Experimental: as §1, §2, §3

[26] = system: Nocardia asteroides ATCC 9970; test: In vitro agar dilution MIC, organism code VV; settings: Table 1B, in µg/mL (unit assumed)
Experimental: as §1
as §2, with “comparability. Erythromycin A was used for this purpose.” for “comparability.”
as §3

[27] = system: Staphylococcus aureus A5177; test: In vitro agar dilution MIC, organism code BB; settings: in µg/mL (unit assumed)
Experimental: as §1, §2, §3

CC[C@H]1OC(=O)C(C)(Cl)C(=O)[C@H](C)[C@@H](O[C@@H]2O[C@H](C)C[C@H](N(C)C)[C@H]2O)[C@](C)(OC)C[C@@H](C)C2=NCCN3C(=O)O[C@@]1(C)[C@H]3[C@H]2C (some centres unmarked) [Example 2]
MIC [1]: > 100 µg/mL
MIC [2]: 3.1 µg/mL (≈ 4.61 µM)
MIC [3]: 25 µg/mL (≈ 37.2 µM)
MIC [4]: > 100
MIC [5]: 12.5 µg/mL (≈ 18.6 µM)
MIC ([6]; Table 1B): 4 µg/mL (≈ 5.95 µM)
MIC ([6]; Table 1C): 4 µg/mL (≈ 5.95 µM)
MIC [7]: 50 µg/mL (≈ 74.4 µM)
MIC [8]: 3.1 µg/mL (≈ 4.61 µM)
MIC ([9]; Table 1B): 4 µg/mL (≈ 5.95 µM)
MIC ([9]; Table 1C): 4 µg/mL (≈ 5.95 µM)
MIC [10]: > 100 µg/mL
MIC ([11]; Table 1B): > 100 µg/mL
MIC ([11]; Table 1C): 128 µg/mL (≈ 190 µM)
MIC [12]: 1.56 µg/mL (≈ 2.32 µM)
MIC [13]: 0.78
MIC ([14]; Table 1B): > 100 µg/mL
MIC ([14]; Table 1C): > 100 µg/mL
MIC [15]: 25
MIC ([16]; Table 1B): 6.2 µg/mL (≈ 9.22 µM)
MIC ([16]; Table 1C): 16 µg/mL (≈ 23.8 µM)
MIC [17]: 6.2
MIC [18]: 4 µg/mL (≈ 5.95 µM)
MIC ([19]; Table 1B): > 128 µg/mL
MIC ([19]; Table 1C): > 128 µg/mL
MIC ([20]; Table 1B): 25 µg/mL (≈ 37.2 µM)
MIC ([20]; Table 1C): 25 µg/mL (≈ 37.2 µM)
MIC [21]: > 100 µg/mL
MIC [22]: 25 µg/mL (≈ 37.2 µM)
MIC ([23]; Table 1B): 32 µg/mL (≈ 47.6 µM)
MIC ([23]; Table 1C): 32 µg/mL (≈ 47.6 µM)
MIC [24]: > 100
MIC ([25]; Table 1B): 3.1 µg/mL (≈ 4.61 µM)
MIC ([25]; Table 1C): 4 µg/mL (≈ 5.95 µM)
MIC [26]: 50
MIC ([27]; Table 1B): 25
MIC ([27]; Table 1C): 25

CC[C@H]1OC(=O)C(C)(F)C(=O)[C@H](C)[C@@H](O[C@@H]2O[C@H](C)C[C@H](N(C)C)[C@H]2O)[C@](C)(OCC#CC(=O)c2ccccc2)C[C@@H](C)C(=O)[C@H](C)[C@H]2NC(=O)O[C@@]21C (some centres unmarked) [Example 23]
MIC [1]: > 100 µg/mL
MIC [2]: 0.39 µg/mL (≈ 0.514 µM)
MIC [3]: 0.78 µg/mL (≈ 1.03 µM)
MIC [4]: > 100
MIC [5]: 0.78 µg/mL (≈ 1.03 µM)
MIC ([6]; Table 1B): 2 µg/mL (≈ 2.64 µM)
MIC [7]: 1.56 µg/mL (≈ 2.06 µM)
MIC [8]: 0.2 µg/mL (≈ 0.264 µM)
MIC ([9]; Table 1B): 0.03 µg/mL (≈ 0.0395 µM)
MIC [10]: > 100 µg/mL
MIC ([11]; Table 1B): > 100 µg/mL
MIC [12]: 0.1 µg/mL (≈ 0.132 µM)
MIC [13]: 3.1
MIC ([14]; Table 1B): > 100 µg/mL
MIC [15]: 1.56
MIC ([16]; Table 1B): 1.56 µg/mL (≈ 2.06 µM)
MIC [17]: 1.56
MIC [18]: 0.03 µg/mL (≈ 0.0395 µM)
MIC ([19]; Table 1B): > 128 µg/mL
MIC ([20]; Table 1B): 1.56 µg/mL (≈ 2.06 µM)
MIC [21]: > 100 µg/mL
MIC [22]: 1.56 µg/mL (≈ 2.06 µM)
MIC ([23]; Table 1B): 8 µg/mL (≈ 10.5 µM)
MIC [24]: 3.1
MIC ([25]; Table 1B): 0.39 µg/mL (≈ 0.514 µM)
MIC [26]: 0.78
MIC ([27]; Table 1B): 0.78

CC[C@H]1OC(=O)[C@@](C)(F)C(=O)[C@H](C)[C@@H](O[C@@H]2O[C@H](C)C[C@H](N(C)C)[C@H]2O)[C@](C)(OC/C=C/c2cnc3ccc(N)cc3c2)C[C@@H](C)C(=O)[C@H](C)[C@H]2NC(=O)O[C@@]21C [Example 9]
MIC [1]: 25 µg/mL (≈ 31.3 µM)
MIC [2]: ≤ 0.005 µg/mL
MIC [3]: 0.02 µg/mL (≈ 0.025 µM)
MIC [4]: 25
MIC [5]: 0.01 µg/mL (≈ 0.0125 µM)
MIC ([6]; Table 1B): 1 µg/mL (≈ 1.25 µM)
MIC [7]: 0.02 µg/mL (≈ 0.025 µM)
MIC [8]: ≤ 0.005 µg/mL
MIC ([9]; Table 1B): 0.015 µg/mL (≈ 0.0188 µM)
MIC [10]: > 100 µg/mL
MIC ([11]; Table 1B): 0.2 µg/mL (≈ 0.25 µM)
MIC [12]: ≤ 0.005 µg/mL
MIC [13]: 0.2
MIC ([14]; Table 1B): > 100 µg/mL
MIC [15]: 0.02
MIC ([16]; Table 1B): 0.1 µg/mL (≈ 0.125 µM)
MIC [17]: 0.02
MIC [18]: 0.015 µg/mL (≈ 0.0188 µM)
MIC ([19]; Table 1B): 0.25 µg/mL (≈ 0.313 µM)
MIC ([20]; Table 1B): 0.02 µg/mL (≈ 0.025 µM)
MIC [21]: > 100 µg/mL
MIC [22]: 0.05 µg/mL (≈ 0.0626 µM)
MIC ([23]; Table 1B): 2 µg/mL (≈ 2.5 µM)
MIC [24]: 0.78
MIC ([25]; Table 1B): ≤ 0.005 µg/mL
MIC [26]: < 0.005
MIC ([27]; Table 1B): 0.02

CC[C@H]1OC(=O)C(C)(Br)C(=O)[C@H](C)[C@@H](O[C@@H]2O[C@H](C)C[C@H](N(C)C)[C@H]2O)[C@](C)(OC)C[C@@H](C)C2=NCCN3C(=O)O[C@@]1(C)[C@H]3[C@H]2C (some centres unmarked) [Example 3]
MIC [1]: > 100 µg/mL
MIC [2]: 0.2 µg/mL (≈ 0.279 µM)
MIC [3]: 0.39 µg/mL (≈ 0.544 µM)
MIC [4]: > 100
MIC [5]: 0.1 µg/mL (≈ 0.14 µM)
MIC ([6]; Table 1B): 2 µg/mL (≈ 2.79 µM)
MIC ([6]; Table 1C): 1 µg/mL (≈ 1.4 µM)
MIC [7]: 0.39 µg/mL (≈ 0.544 µM)
MIC [8]: 0.05 µg/mL (≈ 0.0698 µM)
MIC ([9]; Table 1C): 0.25 µg/mL (≈ 0.349 µM)
MIC [10]: > 100 µg/mL
MIC ([11]; Table 1B): > 100 µg/mL
MIC ([11]; Table 1C): 128 µg/mL (≈ 179 µM)
MIC [12]: 0.2 µg/mL (≈ 0.279 µM)
MIC [13]: 0.39
MIC ([14]; Table 1B): > 100 µg/mL
MIC ([14]; Table 1C): > 100 µg/mL
MIC [15]: 0.39
MIC ([16]; Table 1B): 0.39 µg/mL (≈ 0.544 µM)
MIC [17]: 0.39
MIC [18]: 0.125 µg/mL (≈ 0.174 µM)
MIC ([19]; Table 1C): > 128 µg/mL
MIC ([20]; Table 1B): 0.39 µg/mL (≈ 0.544 µM)
MIC ([20]; Table 1C): 0.78 µg/mL (≈ 1.09 µM)
MIC [21]: > 100 µg/mL
MIC [22]: 0.39 µg/mL (≈ 0.544 µM)
MIC ([23]; Table 1B): 8 µg/mL (≈ 11.2 µM)
MIC ([23]; Table 1C): 8 µg/mL (≈ 11.2 µM)
MIC [24]: 1.56
MIC ([25]; Table 1B): 0.05 µg/mL (≈ 0.0698 µM)
MIC ([25]; Table 1C): < 0.125 µg/mL
MIC [26]: 0.39
MIC ([27]; Table 1B): 0.39
MIC ([27]; Table 1C): 0.78
